From patent US9980979B2, “Compounds and methods for enhancing erythropoiesis” (NATIONAL YANG-MING UNIVERSITY, priority 2008, dated 2018)

Columns and labels:
bone marrow cells = assay: DAF-based hemoglobin colorimetry assay on cultured bone marrow cells from phenylhydrazine-induced anemic mice; type: cell-based, C57BL/6JNarl mice; conditions: about 0.1 to about 20 μg/ml, 4 days, with 50 mU/ml EPO; **P<0.01 versus control (0 μg/ml); FIG. 1
Experimental: C57BL/6JNarl mice, 8-10 weeks of age, were purchased from the National Laboratory Animal Center (NLAC, Taiwan). Acute hemolytic anemia was induced by a single intraperitoneal (i.p.) injection of phenylhydrazine hydrochloride (Sigma-Aldrich) at a dose of 100 mg/kg in a phosphate buffered saline (PBS). Six days after the injection, bone marrow cells were isolated from mice and cultured according to the procedure described in Worthington et al., (1985) and Rosenthal et al. (1987) with minor modifications. […]
In the next day, different concentrations of compound A (0, 0.1, 0.5, 2.5, 12.5 and 20 μg/ml) were added to the cells, respectively, and incubated for 4 days. The relative levels of hemoglobin were determined using DAF-based hemoglobin colorimetry assay according to Kaiho (1985) and Worthington (1985) with minor modifications. […] The absorbance at 610 nm was measured by Victor 2 1420 Multilable Counter (Wallac, PerkinElmer). Results were expressed as relative index±S.E. (n=6). Statistical significance was evaluated by Student's t test (**P<0.01 versus control group (0 μg/ml)).

[1] = test system: hepatocyte growth factor (HGF); assay: liver expression of HGF in cisplatin-induced acute renal failure animal model (PCR); type: in vivo, mouse; conditions: 10~90 mg/Kg/day, day 28; FIG. 10
Experimental: (§1) The effects of Compound A treatment on cisplatin-induced acute renal failure animal model were investigated. C57BL/6JNarl mice (8-week-old) were purchased from the National Laboratory Animal Center (NLAC, Taiwan). Cisplatin (Sigma-Aldrich) was dissolved in normal saline (0.9% (w/v) sodium chloride, Sigma-Aldrich) at a concentration of 1 mg/ml, and injected into mice intraperitoneally (i.p.) according to the following schedule: day 1, 7 mg/kg; day 5, 6 mg/kg; and day 9, 6 mg/kg. For cisplatin-untreated normal mice group, normal saline injections of corresponding volumes were given i.p. in parallel. At day 13, serum samples were collected and blood urea nitrogen (BUN) contents were assayed. […]
(§2) At the end of the experiments described in EXAMPLE 6 (i.e., day 28), mice were sacrificed, kidney and liver tissues were removed, and bone marrow cells were isolated. […] The reverse-transcribed cDNA samples were analyzed by PCR using ABI GeneAmp™ system 2700 (Applied Biosystems) and the SYBR Green Master Mix kit (Applied Biosystems) using primers targeting toward mouse glyceraldehyde 3-phosphate dehydrogenase (GAPDH) (SEQ ID NOs: 5 and 6), erythropoietin (Epo) (SEQ ID NOs: 3 and 4) and hepatocyte growth factor (HGF) (SEQ ID NOs: 7 and 8) (Table 1). Results were expressed as relative index±S.E. (n=5˜6). […]

[2] = test system: erythroid progenitor cells (bone marrow cells); assay: burst-forming-units-erythroid (BFU-E) assay on bone marrow cells in culture; type: cell-based, C57BL/6JNarl mice; conditions: 0.5~12.5 μg/ml, 9 days, with 2 U/ml Epo and 10 ng/ml IL-3; versus 0 concentration; FIG. 2
Experimental: To investigate the effect of “Compound A” on erythroid progenitor cells, burst-forming-units-erythroid (BFU-E) assay was conducted according to the procedures described in Corazza et al. (2004) and Jin et al. (2003) with modifications. Briefly, 6-week-old C57BL/6JNarl mice were purchased from the National Laboratory Animal Center (NLAC, Taiwan). Bone marrow cells were isolated from the mice, and the cell suspension was adjusted to about 8.3×10^4 cells/ml in α-MEM containing 15% (v/v) FBS (Gibco), 1% (v/v) BSA (Sigma-Aldrich), 0.8% (w/v) methylcellulose (Sigma-Aldrich), 10 μM 2-mercaptoethanol (Sigma-Aldrich), 2 U/ml Epo (Recormon Epoetin, Roche), and 10 ng/ml IL-3 (Sigma-Aldrich). Cells were plated at approximately 7.5×10^4 cells/well in 24-well plates (Falcon). They were incubated with different concentrations of Compound A (0, 0.1, 0.5, 2.5 and 12.5 μg/ml), respectively, for 9 days in a humidified 37° C. incubator containing 5% CO2-95% air. The colonies were stained with 3-(4,5-dimethylthiazol-2-yl)-2,5-diphenyl-tetrazolium bromide (50 m/50 μl/well) (MTT; Sigma-Aldrich). Plates were photographed while colonies of more than 50 cells were counted. Results were expressed as mean±S.E. (n=3). Statistical significance was evaluated by Student's t test (*P<0.05 and **P<0.01 versus control group (i.e., 0 concentration)).

[3] = test system: erythroid progenitor cells (bone marrow cells); assay: BFU-E assay on bone marrow cells isolated from treated mice of the cisplatin-induced acute renal failure model; type: in vivo, C57BL/6JNarl mice; conditions: 10~90 mg/kg/day; cells isolated day 28, cultured 12 days; versus control group; FIG. 11
Experimental: as §1, §2

OC[C@H]1O[C@@H](Oc2c(O)cc(O)cc2/C=C/c2ccc(O)cc2)[C@H](O)[C@@H](O)[C@@H]1O [Compound A, 2,3,5,4′-tetrahydroxystilbene 2-O-β-D-glucopyranoside]
hemoglobin formation (relative index) (bone marrow cells): significantly enhanced hemoglobin formation
expression of HGF in liver tissue (relative index) [1]: enhanced the expression of HGF in liver tissue
number of BFU-E colonies of bone marrow cells [2]: significantly increased the number of BFU-E colonies
number of BFU-E colonies of bone marrow cells (relative index) [3]: significantly increased the number of BFU-E colonies
